# Laboratory results published in ChEMBL document CHEMBL5226287, “Small organic molecules targeting the energy metabolism of Mycobacterium tuberculosis” (Eur J Med Chem, 2021).
# Starred links: 1 amine or outer side, 2 acyl side, 3 side chain; linkers in the order of their positions; H or OH if unused. Non-standard residues stand in square brackets, D forms with d. Residues, ends and D or L forms follow the SMILES beside them. ξ: configuration not given here. *: point of attachment. X1 = CCC(=O)C[C@@H](O)C[C@@H](C)C[C@H](N[*:1])C(=O)[*:2]; Alaψ(CH2NMeCH2CH2OH) = C[C@@H](CN(C)CCO)N*; Decanoyl(2R-Me) = CCCCCCCC[C@@H](C)C(=O)*; Ile(3ξ) = CCC(C)[C@H](N)C(=O)O; ξβ3hP = O=C(O)CC1CCCN1; Aib = CC(C)(N)C(=O)O
# Key:
# [1] = tested on: Mycobacterium tuberculosis; assay: Antitubercular activity against Mycobacterium tuberculosis H37Rv assessed as growth inhibition in presence of ATP; assay type: functional
# [2] = tested on: Mycobacterium tuberculosis; assay: Antibacterial activity against Mycobacterium tuberculosis H37Rv ATCC 25618 assessed as complete inhibition of bacterial growth measured after 5 days by spectrophotometry method; assay type: functional; details: H37Rv ATCC 25618, 120 h, time 5 day
# [3] = tested on: Mycobacterium tuberculosis; assay: Antibacterial activity against Mycobacterium tuberculosis H37Rv-MA ATCC 27294 assessed reduction in bacterial growth by microplate alamar blue assay; assay type: functional
# [4] = tested on: Mycobacterium tuberculosis; assay: Antitubercular activity against Mycobacterium tuberculosis H37Rv incubated for 14 days in GAST/FE medium by Alamar blue assay; assay type: functional; details: 336 h, time 14 day
# [5] = tested on: Mycobacterium tuberculosis; assay: Antibacterial activity against Mycobacterium tuberculosis H37Rv in the presence of ATP synthase; assay type: functional
# [6] = Inhibition of Mycobacterium tuberculosis H37Rv ATP synthase
# [7] = tested on: Mycobacterium tuberculosis; assay: Antibacterial activity against Mycobacterium tuberculosis H37Rv assessed as inhibition of bacterial growth by microdilution method; assay type: functional
# [8] = tested on: Mycobacterium tuberculosis; assay: Antibacterial activity against Mycobacterium tuberculosis H37Rv assessed as reduction in bacterial growth in the presence of resazurin reduction under microplate alamarBlue assay; assay type: functional
# [9] = tested on: Mycobacterium tuberculosis; assay: Antibacterial activity against Mycobacterium tuberculosis cytochrome bd oxidase assessed as reduction in bacterial growth in the presence of resazurin reduction under microplate alamarBlue assay; assay type: functional
# [10] = tested on: Mycobacterium tuberculosis; assay: Antibacterial activity against Mycobacterium tuberculosis cytochrome bd oxidase assessed as reduction in bacterial growth in the presence of resazurin reduction under by microdilution method; assay type: functional
# [11] = tested on: Mycobacterium tuberculosis; assay: Antimycobacterial activity against Mycobacterium tuberculosis H37Rv after 14 days; assay type: functional; details: 336 h, time 14 day
# [12] = Inhibition of Mycobacterium tuberculosis TFP incubated for 60 mins by UPLC based assay
# [13] = tested on: Mycobacterium tuberculosis; assay: Antitubercular activity against Mycobacterium tuberculosis H37Rv infected in THP-1 cells assessed as intracellular bacterial growth measured over 6 days; assay type: functional; details: 144 h, time 6 day
# [14] = tested on: Mycobacterium tuberculosis; assay: Antibacterial activity against Mycobacterium tuberculosis H37Rv ATCC 27294 assessed as reduction in microbial growth in GAST media; assay type: functional
# [15] = Kinetic aqueous solubility of the compound in 2.5% DMSO/PBS at pH 7.4 incubated for 2 hrs by nephelometry analysis; assay type: physicochemical; details: PBS with 2.5% DMSO, read-out: Kinetic_solubility
# [16] = tested on: Mycobacterium tuberculosis; assay: Antibacterial activity against Mycobacterium tuberculosis H37Rv ATCC assessed as reduction in bacterial growth by microdilution method; assay type: functional
# [17] = tested on: Mycobacterium tuberculosis; assay: Antibacterial activity against Mycobacterium tuberculosis H37Rv after 7 days by resazurin dye-based assay; assay type: functional; details: time 7 day
# [18] = tested on: Mycobacterium tuberculosis; assay: Antitubercular activity against Mycobacterium tuberculosis H37Rv assessed as inhibition of bacterial growth by fluorescence based analysis; assay type: functional
# [19] = tested on: Mycobacterium tuberculosis; assay: Antibacterial activity against Mycobacterium tuberculosis H37Rv assessed as greater inhibition of microbial growth in presence of depletion of ATP levels by microplate alamar blue assay; assay type: functional, organism-based
# [20] = tested on: Mycobacterium tuberculosis; assay: Antibacterial activity against Mycobacterium tuberculosis assessed as inhibition of bacterial growth in the presence of NADH II dehydrogenase; assay type: functional, organism-based
# [21] = tested on: Mycobacterium tuberculosis; assay: Antibacterial activity against Mycobacterium tuberculosis H37Rv-LP ATCC 25618 assessed reduction in bacterial growth by microplate alamar blue assay; assay type: functional
# [22] = tested on: Mycolicibacterium smegmatis; assay: Antibacterial activity against Mycobacterium smegmatis assessed as inhibition of bacterial growth in the presence of NADH II dehydrogenase; assay type: functional, organism-based
# [23] = tested on: Mycobacterium tuberculosis; assay: Antimycobacterial activity against Mycobacterium tuberculosis H37Rv; assay type: functional, organism-based
# [24] = tested on: Mycobacterium tuberculosis; assay: Inhibition of ATP synthesis in Mycobacterium tuberculosis H37Rv derived membrane vesicle incubated for 60 mins by luciferase based assay; assay type: functional; details: 1 h
# [25] = tested on: Mycobacterium tuberculosis; assay: Antibacterial activity against ATP synthesis in Mycobacterium tuberculosis H37Rv derived membrane vesicle incubated for 60 mins by luciferase based assay; assay type: functional; details: 1 h
# [26] = Inhibition of Mycobacterium smegmatis ptpB expressed in Escherichia coli […] cells in the presence of ATP cells using 6,8-difluoromethylumbelliferyl phosphate as substrate incubated for 30 mins by fluorescence based assay; set-up: species or system Mycolicibacterium smegmatis
# [27] = tested on: Mycobacterium tuberculosis; assay: Antibacterial activity against Mycobacterium tuberculosis H37Rv in macrophages by CLSI broth microdilution method; assay type: functional
# [28] = tested on: Mycobacterium tuberculosis; assay: Antibacterial activity against Mycobacterium tuberculosis H37Rv assessed as reduction bacterial growth after 14 days by micro broth dilution method; assay type: functional; details: 336 h, time 14 day
# HepG2 = assay: Cytotoxicity against human HepG2 cells assessed as cell viability at 100 uM by MTT assay; assay type: functional; details: read-out: TD50 (the source's name)
# [29] = Lipophilicity, log P of the compound at pH 6.5; assay type: physicochemical; details: buffer
compound,measurement,setting,value
O=C(CNC1CCCC1)N(c1ccccc1)c1ccccc1,MIC,[1],6.25 µg/mL
CCc1nc2ccc(C)cc2n1CCCNc1ccc(C)cc1,MIC99,[2],0.061 µM
CCc1nc2ccccc2n1CCCCSc1nc(-c2ccccc2)cs1,MIC50,[3],5.3 µM
Cc1ccc(-c2nc3ccc(C)cn3c2CC(=O)N(C)C)cc1 [ZOLPIDEM],MIC,[4],10 µM
CCc1ccn2c(C(=O)NCc3ccc(C)cc3)c(C)nc2c1,MIC,[4],0.004 µM
CN(C)Cc1ccc(-c2cc3cc(Br)ccc3nc2OCc2ccncc2)cc1,MIC,[5],0.43 µg/mL
same,IC50,[6],20.3 µM
COc1ccc(CNC(=O)c2c(C)nc3ccc(Br)cn23)cc1,MIC,[7],> 50 µM
same,MIC,[8],0.15 µM
same,MIC,[9],< 0.024 µM
same,MIC,[10],< 0.024 µM
CN(C)CCN1CCN(c2ccc(-c3cc4cc(Br)ccc4nc3OCc3ccc4ccccc4c3)cc2)CC1,MIC,[5],0.44 µg/mL
same,IC50,[6],38.8 µM
O=C(/C=C/c1cccs1)N1CCN(Cc2ccc3c(c2)OCO3)CC1,MIC,[11],0.05 µM
same,IC50,[12],0.1 µg/mL
same,MIC,[13],0.4 µM
O=C(CSc1nc2ccccc2c(=O)[nH]1)NCC1CCC(F)(F)CC1,MIC,[14],0.8 µM
same,solubility kinetic at 2 h,[15],250 µM
same,IC90,[16],5.1 µM
O=C(/C=C/c1cscn1)N1CCN(Cc2ccc3c(c2)OCO3)CC1,MIC,[11],0.1 µM
same,MIC,[13],0.6 µM
O=C(CSc1nc2ccccc2c(=O)[nH]1)NC1CCC(F)(F)CC1,MIC,[14],0.5 µM
CCSc1nc(NC)c2ccc(F)c(F)c2n1,TD50,[17],0.02 µg/mL
Cc1ccc2nc(C)c(C(=O)NCc3ccc(Cl)nc3)n2c1,MIC,[18],5 µM
CCCCNc1nc(CC)nc2sc(C)cc12,IC50,[19],0.84 µM
C=CCN1NC(C(=O)N2CCSCC2)C2CC(NCc3ccc(Cl)s3)CCC21 (stereo not drawn),IC50,[20],0.0647 µM
CCc1nc2ccc(C)cc2n1CCCCOc1ccccc1,MIC50,[21],0.34 µM
O=C(CSc1nc2cccc(F)c2c(=O)[nH]1)NC1CCC(F)(F)CC1,IC50,[22],0.0107 µM
Cc1ccn2c(C(=O)NCc3cccc(OC(C)C)c3)c(C)nc2c1,IC50,[23],0.39 µM
Nc1c2c(nc3sc4c(c13)CCCCC4)CCCC2,IC50,[24],3.4 µM
same,MIC50,[25],1.7 µM
COc1ccc(/C=C2/S/C(=N/N=C/c3ccccc3O)NC2=O)cc1,IC50,[26],0.312 µM
same,MIC90,[27],4 µg/mL
same,MIC90,[28],0.5 µg/mL
CCc1nc2ccccc2n1CCCCNc1ccccc1,MIC99,[2],0.47 µM
CCNc1nc(SCC)nc2ccccc12,CC50,HepG2,> 5 µg/mL
same,TD50,[17],0.09 µg/mL
O=C(CNC1CCCCC1)N(c1ccccc1)c1ccccc1,MIC,[1],5.23 µg/mL
Cc1ccn2c(C(=O)NCc3ccccc3)c(C)nc2c1,IC50,[23],0.15 µM
O=C(CSc1nc2ccccc2c(=O)[nH]1)NC1CCCCC1,MIC,[14],0.3 µM
same,solubility kinetic at 2 h,[15],83 µM
CCCCCCCC[C@@H](C)C(=O)N1CCCC1CC(=O)N[C@@H](C[C@H](C)C[C@H](O)CC(=O)CC)C(=O)NC(C)(C)C(=O)NC(C)(C)C(=O)N[C@H](C(=O)N[C@H](C(=O)NC(C)(C)C(=O)NC(C)(C)C(=O)N[C@@H](C)CN(C)CCO)C(C)C)C(C)CC (stereo partly drawn) ({Decanoyl(2R-Me)}-[ξβ3hP][X1][Aib][Aib][Ile(3ξ)]V[Aib][Aib]-{Alaψ(CH2NMeCH2CH2OH)}),logD,[29],4.37
Cc1ccc2nc(C)c(C(=O)NCc3ccc(C(F)(F)F)cc3)n2c1,MIC,[18],0.03 µM
